The record followed here is patent publication US9422267B2, “Fused pyrimidine compounds and use thereof” (Medivation Technologies, Inc., priority 2012, dated 2016).

The structures appear in SMILES notation. Some results are limits rather than exact numbers.

The test system of one assay is ZR-75-1. Kind of assay: Cell Titer-Glo cell viability: ZR-75-1. Format: cell-based. Conditions: Homo sapiens; ZR-75-1, breast cancer; 72 h. The procedure:
Compound nos. […] This panel of cell lines includes an ER− breast carcinoma, primary breast ductal carcinoma, prostate adenocarcinoma, mammary adenocarcinoma, mammary ductal carcinoma, mammary ductal carcinoma, ovary adenocarcinoma, ER+ breast carcinoma, ER-HER2+ mammary ductal carcinoma and an ER+ mammary ductal carcinoma, respectively.
This assay quantitates the ATP present in order to determine the number of viable cells in culture. Briefly, the compounds were incubated with the cells for 72 h, followed by cell lysis. The resulting luminescent signal is proportional to the amount of ATP present and, therefore, directly proportional to the number of cells present in culture.
A general note: ATP-based viability assays read luminescence as a measure of living cells.

The target of another assay is T1, ABL (Homo sapiens, UniProt P00519).
T1 construct: purchased Caliper LifeSciences (ProfilerPro Kinase Selectivity Assay Kits)
Kind of assay: Caliper kinase profiling: ABL. Type of assay: biochemical. To be noted: read-out: Average % Inh @ 1 μM.

In another assay the target is T2, Abl(H396P) (Homo sapiens, UniProt P00519, H396P).
T2 construct: purchased Caliper LifeSciences (ProfilerPro Kinase Selectivity Assay Kits)
Kind of assay: Caliper kinase profiling: Abl(H396P). Type of assay: biochemical. To be noted: read-out: Average % Inh @ 1 μM.

The target in the next assay is T3, Abl(T315I) (Homo sapiens, UniProt P00519, T315I).
T3 construct: purchased Caliper LifeSciences (ProfilerPro Kinase Selectivity Assay Kits)
Kind of assay: Caliper kinase profiling: Abl(T315I). Type of assay: biochemical.

Another assay deals with AMPK. Kind of assay: Caliper kinase profiling: AMPK. Format: biochemical.
The target of a further assay is T4, BLK (Homo sapiens, UniProt P51451).
T4 construct: purchased Caliper LifeSciences (ProfilerPro Kinase Selectivity Assay Kits)
Kind of assay: Caliper kinase profiling: BLK. Format: biochemical.

Another assay concerns the target DDR2 (Homo sapiens, UniProt Q16832). Kind of assay: Caliper kinase profiling: DDR2. Type of assay: biochemical. Conditions: DDR2, 1 μM; read-out: Average % Inh @ 1 μM.
A further assay addresses EPHB1 (Homo sapiens, UniProt P54762). Kind of assay: Caliper kinase profiling: EPHB1. Format: biochemical. Conditions: EPHB1, 1 μM; read-out: Average % Inh @ 1 μM.
The target in another assay is FGFR1 (Homo sapiens, UniProt P11362). Kind of assay: Caliper kinase profiling: FGFR1. Format: biochemical.
The next assay deals with FGFR2 (Homo sapiens, UniProt P21802). Kind of assay: Caliper kinase profiling: FGFR2. Format: biochemical.
For a further assay, the target named is FGFR3(K650E) (Homo sapiens, UniProt P22607, K650E). Kind of assay: Caliper kinase profiling: FGFR3(K650E). Format: biochemical. Conditions: read-out: Average % Inh @ 1 μM.
For another assay, the target named is FGR (Homo sapiens, UniProt P09769). Kind of assay: Caliper kinase profiling: FGR. Type of assay: biochemical.
A further assay addresses FLT3 (Homo sapiens, UniProt P36888). Kind of assay: Caliper kinase profiling: FLT3. Format: biochemical. Conditions: FLT3, 1 μM; read-out: Average % Inh @ 1 μM.
A further assay concerns the target Hck (Homo sapiens, UniProt P08631). Kind of assay: Caliper kinase profiling: Hck. Type of assay: biochemical.
The target in the next assay is ITK (Homo sapiens, UniProt Q08881). Kind of assay: Caliper kinase profiling: ITK. Conditions: read-out: Average % Inh @ 1 μM. Format: biochemical.
Another assay concerns the target JAK2 (Homo sapiens, UniProt O60674). Kind of assay: Caliper kinase profiling: JAK2. Format: biochemical. Conditions: JAK2, 1 μM; read-out: Average % Inh @ 1 μM.
The target of the next assay is KDR (Homo sapiens, UniProt P35968). Kind of assay: Caliper kinase profiling: KDR. Format: biochemical. To be noted: read-out: Average % Inh @ 1 μM.
Another assay deals with LYN (Homo sapiens, UniProt P07948). Kind of assay: Caliper kinase profiling: LYN. Format: biochemical.
In a further assay the target is LYNB (Homo sapiens, UniProt P07948). Kind of assay: Caliper kinase profiling: LYNB. Type of assay: biochemical.
The target of the next assay is PAK5(PAK7) (Homo sapiens, UniProt Q9P286). Kind of assay: Caliper kinase profiling: PAK5(PAK7). Type of assay: biochemical. Conditions: read-out: Average % Inh @ 1 μM.
[1] abbreviates: 10 nM, read-out: Average % Inh @ 10 nM.
[2] abbreviates: 100 nM, read-out: Average % Inh @ 100 nM.
The mark [3] stands for this setting: 1 μM, read-out: Average % Inh @ 1 μM.

Chain of FGFR1 (P11362 22-822): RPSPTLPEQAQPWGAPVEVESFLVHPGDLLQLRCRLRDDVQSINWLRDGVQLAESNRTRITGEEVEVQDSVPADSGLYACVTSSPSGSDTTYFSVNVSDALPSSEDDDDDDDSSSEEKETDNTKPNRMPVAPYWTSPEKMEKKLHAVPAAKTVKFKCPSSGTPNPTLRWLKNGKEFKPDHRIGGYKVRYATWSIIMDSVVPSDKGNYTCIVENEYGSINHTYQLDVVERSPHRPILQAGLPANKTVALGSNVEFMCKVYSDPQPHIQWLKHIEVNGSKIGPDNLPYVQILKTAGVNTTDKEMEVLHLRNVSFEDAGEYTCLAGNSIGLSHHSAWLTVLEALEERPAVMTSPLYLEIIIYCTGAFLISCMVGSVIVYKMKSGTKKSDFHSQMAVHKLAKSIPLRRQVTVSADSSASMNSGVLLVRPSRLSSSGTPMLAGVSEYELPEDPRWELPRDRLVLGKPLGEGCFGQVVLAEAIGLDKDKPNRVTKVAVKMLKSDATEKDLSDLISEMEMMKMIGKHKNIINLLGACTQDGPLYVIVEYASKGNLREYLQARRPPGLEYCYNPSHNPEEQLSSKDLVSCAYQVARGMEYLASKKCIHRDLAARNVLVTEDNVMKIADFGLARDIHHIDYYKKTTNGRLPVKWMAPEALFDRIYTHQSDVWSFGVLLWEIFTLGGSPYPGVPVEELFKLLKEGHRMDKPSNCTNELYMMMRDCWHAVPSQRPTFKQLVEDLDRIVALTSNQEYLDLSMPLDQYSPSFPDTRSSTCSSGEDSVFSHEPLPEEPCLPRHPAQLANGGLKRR
Chain of LYNB (P07948 1-491 isoform P07948-2): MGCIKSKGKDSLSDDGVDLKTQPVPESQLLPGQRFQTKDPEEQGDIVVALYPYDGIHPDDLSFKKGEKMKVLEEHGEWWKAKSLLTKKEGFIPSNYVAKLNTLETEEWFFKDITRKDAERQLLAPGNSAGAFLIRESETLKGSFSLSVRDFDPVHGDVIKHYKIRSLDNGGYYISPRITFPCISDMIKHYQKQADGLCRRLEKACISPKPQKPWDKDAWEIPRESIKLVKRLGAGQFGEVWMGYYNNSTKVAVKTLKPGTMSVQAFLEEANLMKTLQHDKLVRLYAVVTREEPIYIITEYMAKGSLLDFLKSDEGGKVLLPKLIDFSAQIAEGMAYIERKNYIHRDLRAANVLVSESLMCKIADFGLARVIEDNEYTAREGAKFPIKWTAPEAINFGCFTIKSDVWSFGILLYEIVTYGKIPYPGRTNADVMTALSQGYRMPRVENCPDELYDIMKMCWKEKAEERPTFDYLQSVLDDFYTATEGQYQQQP
Chain of FGR (P09769 whole entry): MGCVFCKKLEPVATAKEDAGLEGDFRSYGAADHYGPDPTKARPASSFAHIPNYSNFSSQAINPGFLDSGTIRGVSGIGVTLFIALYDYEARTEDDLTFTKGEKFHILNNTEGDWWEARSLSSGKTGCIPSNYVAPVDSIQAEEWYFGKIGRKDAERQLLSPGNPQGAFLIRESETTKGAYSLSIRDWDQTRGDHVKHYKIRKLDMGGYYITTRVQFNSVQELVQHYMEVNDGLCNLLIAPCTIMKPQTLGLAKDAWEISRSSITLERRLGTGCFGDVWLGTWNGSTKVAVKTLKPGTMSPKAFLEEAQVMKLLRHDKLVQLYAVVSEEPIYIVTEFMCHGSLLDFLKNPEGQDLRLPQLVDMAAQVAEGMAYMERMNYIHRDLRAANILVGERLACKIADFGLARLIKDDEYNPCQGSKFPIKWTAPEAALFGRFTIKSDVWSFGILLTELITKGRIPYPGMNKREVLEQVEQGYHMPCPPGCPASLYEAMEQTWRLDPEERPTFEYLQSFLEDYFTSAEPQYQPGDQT
Chain of LYN (P07948 whole entry): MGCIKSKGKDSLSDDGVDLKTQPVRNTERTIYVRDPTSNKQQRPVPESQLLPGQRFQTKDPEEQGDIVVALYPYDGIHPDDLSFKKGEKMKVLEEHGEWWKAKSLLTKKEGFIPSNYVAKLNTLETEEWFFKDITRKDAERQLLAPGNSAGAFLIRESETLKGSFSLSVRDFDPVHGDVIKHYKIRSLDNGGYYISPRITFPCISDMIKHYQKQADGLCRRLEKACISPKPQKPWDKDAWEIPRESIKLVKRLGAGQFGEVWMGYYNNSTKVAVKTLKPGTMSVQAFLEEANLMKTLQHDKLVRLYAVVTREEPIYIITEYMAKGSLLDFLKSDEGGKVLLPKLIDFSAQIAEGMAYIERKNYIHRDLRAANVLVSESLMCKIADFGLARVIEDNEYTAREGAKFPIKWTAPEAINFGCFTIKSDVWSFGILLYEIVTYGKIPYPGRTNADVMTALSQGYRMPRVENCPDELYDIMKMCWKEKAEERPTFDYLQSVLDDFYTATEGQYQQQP
T4 sequence (P51451 whole entry): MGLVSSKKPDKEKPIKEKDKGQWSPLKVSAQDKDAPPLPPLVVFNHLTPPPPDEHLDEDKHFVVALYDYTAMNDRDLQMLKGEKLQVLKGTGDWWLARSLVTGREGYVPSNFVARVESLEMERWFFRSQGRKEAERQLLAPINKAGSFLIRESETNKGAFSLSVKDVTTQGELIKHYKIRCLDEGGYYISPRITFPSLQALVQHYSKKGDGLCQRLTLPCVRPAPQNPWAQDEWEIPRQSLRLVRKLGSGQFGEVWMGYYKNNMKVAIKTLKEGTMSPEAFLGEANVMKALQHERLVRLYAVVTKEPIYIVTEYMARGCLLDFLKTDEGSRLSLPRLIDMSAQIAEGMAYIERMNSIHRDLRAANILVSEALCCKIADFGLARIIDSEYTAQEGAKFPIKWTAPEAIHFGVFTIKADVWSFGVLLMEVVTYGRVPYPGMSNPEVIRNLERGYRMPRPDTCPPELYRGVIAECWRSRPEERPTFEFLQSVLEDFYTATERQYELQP
Chain of Hck (P08631 whole entry): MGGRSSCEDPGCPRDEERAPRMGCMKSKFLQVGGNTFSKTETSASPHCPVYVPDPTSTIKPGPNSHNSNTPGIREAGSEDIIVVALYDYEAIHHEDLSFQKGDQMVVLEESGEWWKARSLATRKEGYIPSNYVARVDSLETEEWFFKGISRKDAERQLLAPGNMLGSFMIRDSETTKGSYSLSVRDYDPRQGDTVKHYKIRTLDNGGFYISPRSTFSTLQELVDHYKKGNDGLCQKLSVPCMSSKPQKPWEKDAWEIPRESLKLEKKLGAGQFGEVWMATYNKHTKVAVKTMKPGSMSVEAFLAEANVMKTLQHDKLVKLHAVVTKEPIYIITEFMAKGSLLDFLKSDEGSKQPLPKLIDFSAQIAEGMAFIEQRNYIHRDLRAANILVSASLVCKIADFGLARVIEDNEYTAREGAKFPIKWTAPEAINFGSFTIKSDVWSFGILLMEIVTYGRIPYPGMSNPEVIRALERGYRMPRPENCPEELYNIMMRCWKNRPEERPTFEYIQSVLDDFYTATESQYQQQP
Chain of FGFR2 (P21802 22-821): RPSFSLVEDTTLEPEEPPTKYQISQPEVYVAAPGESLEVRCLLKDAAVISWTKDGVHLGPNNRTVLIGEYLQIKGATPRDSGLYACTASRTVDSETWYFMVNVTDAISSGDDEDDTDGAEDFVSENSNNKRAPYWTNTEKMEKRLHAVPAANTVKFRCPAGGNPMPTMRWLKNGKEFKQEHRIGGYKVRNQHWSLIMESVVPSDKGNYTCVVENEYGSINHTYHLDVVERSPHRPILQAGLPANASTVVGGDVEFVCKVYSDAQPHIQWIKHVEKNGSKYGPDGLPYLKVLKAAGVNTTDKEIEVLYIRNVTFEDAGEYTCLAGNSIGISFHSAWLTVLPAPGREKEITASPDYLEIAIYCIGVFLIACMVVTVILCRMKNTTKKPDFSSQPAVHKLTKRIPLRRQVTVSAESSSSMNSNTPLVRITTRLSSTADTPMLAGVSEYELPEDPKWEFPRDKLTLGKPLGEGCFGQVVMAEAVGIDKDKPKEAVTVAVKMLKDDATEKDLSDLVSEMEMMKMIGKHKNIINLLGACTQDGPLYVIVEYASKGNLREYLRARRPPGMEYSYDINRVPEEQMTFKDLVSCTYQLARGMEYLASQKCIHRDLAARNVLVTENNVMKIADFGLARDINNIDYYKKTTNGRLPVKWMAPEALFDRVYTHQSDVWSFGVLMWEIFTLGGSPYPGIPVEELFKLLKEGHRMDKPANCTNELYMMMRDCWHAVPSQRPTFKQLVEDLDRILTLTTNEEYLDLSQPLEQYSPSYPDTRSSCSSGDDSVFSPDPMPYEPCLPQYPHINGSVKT
Chain of FGFR3(K650E) (P22607 23-806 K650E): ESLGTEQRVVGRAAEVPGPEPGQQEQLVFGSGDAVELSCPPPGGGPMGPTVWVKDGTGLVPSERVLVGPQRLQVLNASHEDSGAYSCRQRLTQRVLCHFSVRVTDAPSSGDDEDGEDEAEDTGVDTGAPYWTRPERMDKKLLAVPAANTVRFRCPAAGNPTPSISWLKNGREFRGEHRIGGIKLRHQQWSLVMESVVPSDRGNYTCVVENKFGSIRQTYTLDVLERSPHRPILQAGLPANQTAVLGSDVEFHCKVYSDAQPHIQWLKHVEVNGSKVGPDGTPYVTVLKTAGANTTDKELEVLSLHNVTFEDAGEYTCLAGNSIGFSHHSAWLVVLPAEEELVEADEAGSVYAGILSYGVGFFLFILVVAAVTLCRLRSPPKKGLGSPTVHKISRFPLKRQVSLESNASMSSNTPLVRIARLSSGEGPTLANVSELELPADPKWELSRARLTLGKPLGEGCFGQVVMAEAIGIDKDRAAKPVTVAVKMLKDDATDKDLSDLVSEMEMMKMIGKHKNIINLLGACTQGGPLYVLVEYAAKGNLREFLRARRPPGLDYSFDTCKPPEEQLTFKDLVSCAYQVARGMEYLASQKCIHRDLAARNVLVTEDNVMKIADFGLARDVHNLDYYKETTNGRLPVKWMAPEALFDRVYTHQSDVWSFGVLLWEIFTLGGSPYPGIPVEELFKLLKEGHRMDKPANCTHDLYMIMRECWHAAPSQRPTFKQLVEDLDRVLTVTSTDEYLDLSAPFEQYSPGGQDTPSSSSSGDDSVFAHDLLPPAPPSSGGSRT
Description for AMPK: (§1) The compound was tested at concentrations of 1.0×10^−8 and 1.0×10^−9 M in the RapidKinase192™ panel in duplicate. […] The screening was performed using the Caliper EZReader2, a 4-sipper LabChip, and ProfilerPro Kinase Selectivity Assay Kits 1 and 2. The assay measures the conversion of a fluorescent peptide substrate to a phosphorylated product. Briefly, the reaction mixture was introduced through a capillary sipper onto the microfluidic chip, where the substrate and product were electrophoretically separated and detected by laser-induced fluorescence. The time-dependent fluorescence signal indicates the extent of the reaction.
Description for KDR: as §1

Regarding `CC(C)c1cc(Nc2nc(N3CCCC3C(=O)Nc3ccc(F)nc3)nc3c2CCC3)n[nH]1` (single isomer, unassigned) [Compound 8b], the IC50 in the assay on ZR-75-1 is less than 100 µM.

With `O=C(Nc1ccc(F)nc1)C1CCCN1c1nc2c(c(Nc3cc(C4CC4)[nH]n3)n1)CCC2` (single isomer, unassigned) [Compound 2b, 1-(4-(5-cyclopropyl-1H-pyrazol-3-ylamino)-6,7-dihydro-5H-cyclopenta[d]pyrimidin-2-yl)-N-(6-fluoropyridin-3-yl)pyrrolidine-2-carboxamide], the inhibition at 1 µM at ABL was 40 to 59%; at Abl(H396P) it was 40 to 59%; at Abl(T315I) (setting [3]) it was greater than 60%; on BLK (setting [3]), greater than 60%; on DDR2, greater than 60%; on EPHB1, greater than 60%. In addition, the inhibition at 1 µM was greater than 60% on FGFR1 (FGFR1, 1 μM, read-out: Average % Inh @ 1 μM); greater than 60% at FGFR2 (FGFR2, 1 μM, read-out: Average % Inh @ 1 μM); greater than 60% at FGFR3(K650E); greater than 60% at FGR (setting [3]); 40 to 59% at FLT3; greater than 60% at Hck (setting [3]). The inhibition at 1 µM at ITK was 40 to 59%; on JAK2 it was greater than 60%; on KDR, 40 to 59%; at LYN (setting [3]), greater than 60%; at LYNB (setting [3]), greater than 60%; on PAK5(PAK7) it was 40 to 59%. For the same compound, the inhibition at 0.01 µM at Abl(T315I) (setting [1]) was less than 39%; on BLK (setting [1]), less than 39%; at FGFR1 (FGFR1, 10 nM, read-out: Average % Inh @ 10 nM), less than 39%; at FGFR2 (FGFR2, 10 nM, read-out: Average % Inh @ 10 nM), less than 39%; at FGR (setting [1]), less than 39%; on Hck (setting [1]), less than 39%. Moreover, the inhibition at 0.01 µM on LYN (setting [1]) and on LYNB (setting [1]) was less than 39% in each case. In addition, the inhibition at 0.1 µM on Abl(T315I) (setting [2]) is less than 39%; on BLK (setting [2]), less than 39%; at FGFR1 (FGFR1, 100 nM, read-out: Average % Inh @ 100 nM) it was less than 39%; on FGFR2 (FGFR2, 100 nM, read-out: Average % Inh @ 100 nM), less than 39%; on FGR (setting [2]) it was less than 39%; at Hck (setting [2]) it was 40 to 59%. The inhibition at 0.1 µM on LYN (setting [2]) and at LYNB (setting [2]) was 40 to 59% each time. Besides, the “Average % Inh @ 10 nM” value with AMPK (10 nM) is “+ (+=Low)”. In addition, the “Average % Inh @ 100 nM” value in the assay on AMPK (100 nM) is on record as “++ (++=Med)”. The “Average % Inh @ 1 μM” value in the assay with AMPK (1 μM) was “+++ (+++=High)”.

What is called IC50 is the midpoint of a concentration-inhibition curve. A low value points to inhibition by little substance.
